The values that follow are results of earlier work, collected in patent US4994542A, “Surgical adhesive” (Asahi Glass Co., Ltd., priority 1988, dated 1991).

The conditions of series [1]: aromatic polyisocyanates, general statement.
For series [2] the following is noted: hydrolysis products of TDI and MDI.

For tolylene diisocyanates [TDI], in series [1], the mutagenic activity result was “high mutagenic activity”.

For tolylene diamine, the “activity in a microbial mutagenicity test (Ames test)” value in series [2] is listed as “high activity”.

Regarding diaminodiphenylmethane, the “activity in a microbial mutagenicity test (Ames test)” value in series [2] is “high activity”.

For diphenylmethane diisocyanates [MDI], the mutagenic activity result in series [1] was “high mutagenic activity”.
